Test results reported in patent US20230348376A1 (TEIJIN PHARMA LIMITED, priority 2020, published 2023).

How the values were obtained:
[1] = system: rat oligodendrocyte progenitor cells; assay: Promotive activity of rat oligodendrocyte progenitor cell differentiation-1 (MBP gene expression, mRNA); assay type: cell-based; details: Rattus norvegicus, Oligodendrocyte progenitor cell, 96 h, read-out: promotive activity at T3 base (MBP gene expression; DMSO 0%, T3 100%), 4 days, MBP/β actin mRNA
Description: Regarding vitamin D derivatives, which was confirmed to act on the vitamin D receptor (VDR) in Example 352, the promotive activity of oligodendrocyte progenitor cell (OPC) differentiation was evaluated by MBP gene expression (mRNA).
A forebrain obtained from SD rat (Charles River Japan, 1 day old) was crushed with 70 μm Cell Strainer (Falcon #352350), and a cell suspension was prepared by collecting the cells in oligodendrocyte progenitor cell separation medium (20% FBS/2 mM Glutamax (Gibco #35050-061)/i mM sodium pyruvate (Gibco #11360-070)/1% penicillin-streptomycin (Invitrogen #15140-122)/DMEM (Gibco #11960-044)). The cell suspension was seeded in a poly-D-lysine coated T75 flask (Thermo Fisher Scientific #132704) and cultured for about 2 weeks. After culturing, the flask was shaken using a rotary shaker ([…] #WB-101SRC) for about 1 hour (37° C., 100 rpm), and the supernatant was discarded to remove microglia. Subsequently, oligodendrocyte progenitor cell separation medium was added to the flask, and the mixture was similarly shaken for about 22 hours (37° C., 200 rpm), and the supernatant was collected to prepare oligodendrocyte progenitor cells.
The oligodendrocyte progenitor cell prepared was suspended in a differentiation medium (2% B27 (Thermo Fisher Scientific, Inc. #17504-044)/1% penicillin-streptomycin (Invitrogen Corporation #15140-122)/10 ng/mL CNTF (PeproTech Inc. #AF-450-13)/DMEM (Gibco #11960-044)), and seeded on a 96-well plate coated with poly-L-ornithine (FUJIFILM Wako Pure Chemical Corporation #163-27421) under the condition of 0.65×10^4 cells/well, and on a 384-well plate under the condition of 2×10^3 cells/well using an automatic dispensing system (LABCYTE #Echo555). […] After culturing, the cells seeded on the 96-well plate were subjected to immunostaining against MBP using following methods: fixation (4% paraformaldehyde solution, 30 minutes, room temperature), PBS washing, membrane permeation treatment (0.1% Trion X-100 (SIGMA #X100-100ML)/PBS, 3 minutes, room temperature), blocking (3% BSA (SIGMA #A9647-10G)/PBS, 1 hour, room temperature), primary antibody reaction (MBP antibody (abcam plc #ab40390), 2.5 μg/mL, 4° C., 24 hours), PBS washing, secondary antibody reaction (Alexa488 anti-rabbit IgG (Thermo Fisher Scientific, Inc. #A-11034), 5 μg/mL, room temperature, 1 hour), PBS washing, and nuclear staining (Hoechst33342 (DOJINDO #NU043), 10 μg/mL, room temperature, 5 minutes). Subsequently, images of each well were acquired using a fluorescence microscope (KEYENCE CORPORATION #BZ-X800), the number of MBP-positive cells and Hoechst 33342-positive cells were measured using an image analysis application (KEYENCE CORPORATION #BZ-X800 Analyzer), and then the ratio (the number of MBP-positive cells/the number of Hoechst33342-positive cells) was calculated. The cells seeded on the 384-well plate were subjected to real-time PCR using Cells-to-CT 1-Step TaqMan Kit (Thermo Fisher Scientific, Inc. #A25602) and QuantStudio 12K Flex Real-Time PCR System (Thermo Fisher Scientific, Inc. #4472380). The experiment was performed in accordance with the protocol attached to the kit. MBP (Thermo Fisher Scientific, Inc. #Assay ID Rn00690616_ml) and β actin (Thermo Fisher Scientific, Inc. #Assay ID Rn00667869_ml) were used as primers, and the expression levels of each were measured and the ratio (MBP/β actin) was calculated.

human VDR = target: T1, human VDR (Homo sapiens, UniProt P11473); assay: Evaluation of VDR transcription activity in human osteoblasts (HOS cells), luciferase reporter; details: Activity (EC50, VDR transcription activity), HOS cells transfected with human VDR, human RXRα and DR3 luciferase reporter; 21 hours
T1 sequence (P11473 1-427): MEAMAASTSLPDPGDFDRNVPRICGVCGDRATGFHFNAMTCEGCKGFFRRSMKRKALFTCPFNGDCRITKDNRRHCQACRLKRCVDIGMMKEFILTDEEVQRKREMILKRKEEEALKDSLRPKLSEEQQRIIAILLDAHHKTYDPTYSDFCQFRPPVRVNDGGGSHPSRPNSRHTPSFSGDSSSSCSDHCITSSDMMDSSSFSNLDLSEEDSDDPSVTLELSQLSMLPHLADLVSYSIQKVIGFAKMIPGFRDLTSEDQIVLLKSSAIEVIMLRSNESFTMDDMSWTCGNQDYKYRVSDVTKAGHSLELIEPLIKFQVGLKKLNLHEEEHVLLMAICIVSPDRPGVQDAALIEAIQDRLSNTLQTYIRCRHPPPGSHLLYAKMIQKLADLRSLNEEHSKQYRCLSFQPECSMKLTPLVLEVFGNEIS
T1 sequence (P19793 1-462 partner): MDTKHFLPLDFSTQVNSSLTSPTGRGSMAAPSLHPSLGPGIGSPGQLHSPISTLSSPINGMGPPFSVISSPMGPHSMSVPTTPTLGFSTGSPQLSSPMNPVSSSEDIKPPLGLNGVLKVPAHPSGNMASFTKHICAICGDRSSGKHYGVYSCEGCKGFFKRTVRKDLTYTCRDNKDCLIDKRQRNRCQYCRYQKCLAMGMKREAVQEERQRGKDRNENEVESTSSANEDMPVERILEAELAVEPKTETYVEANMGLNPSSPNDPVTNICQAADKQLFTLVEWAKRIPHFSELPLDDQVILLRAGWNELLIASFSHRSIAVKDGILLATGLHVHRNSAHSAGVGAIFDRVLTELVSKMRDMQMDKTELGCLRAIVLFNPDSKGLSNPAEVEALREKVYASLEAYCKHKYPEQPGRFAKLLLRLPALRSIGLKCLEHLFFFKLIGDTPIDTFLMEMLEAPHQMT

SMILES | activation at 1 µM [1] [%] | EC50 (human VDR) [nM]
C[C@H](CN1CCCC(O)(C(F)F)C1)[C@H]1CC[C@H]2/C(=C/C=C3C[C@@H](O)C[C@H](O)C3)CCC[C@]12C (single isomer, unassigned) [Compound C035a] | ≥ 20 | < 1
COC1(C)CCCN(C[C@@H](C)[C@H]2CC[C@H]3/C(=C/C=C4C[C@@H](O)C[C@H](O)C4)CCC[C@]23C)C1 (single isomer, unassigned) [Compound C045a] | ≥ 20 | 10 to 100
C=C1C(O)CC(=C/C=C2\CCC[C@]3(C)[C@@H]([C@H](C)CN4CC[C@H](OC(F)(F)F)C4)CC[C@@H]23)C[C@H]1O (stereo in doubt) [Compound B067, (1R,3S)-5-(2-((1R,3aS,7aR,E)-7a-methyl-1-((S)-1-((S)-3-(trifluoromethoxy)pyrrolidin-1-yl)propan-2-yl)octahydro-4H-inden-4-ylidene)ethylidene)-2-methylenecyclohexane-1,3-diol] | ≥ 20 | 1 to 10
C[C@H](CN1CC[C@@H](OC(F)(F)F)C1)[C@H]1CC[C@H]2/C(=C/C=C3CC(O)C[C@H](O)C3)CCC[C@]12C (stereo in doubt) [Compound B070, (1R,3S)-5-(2-((1R,3aS,7aR,E)-7a-methyl-1-((S)-1-((R)-3-(trifluoromethoxy)pyrrolidin-1-yl)propan-2-yl)octahydro-4H-inden-4-ylidene)ethylidene)cyclohexane-1,3-diol] | ≥ 20 | 10 to 100
C=C1C(O)CC(=C/C=C2\CCC[C@]3(C)[C@@H]([C@H](C)CN4CC[C@](C)(O)C4)CC[C@@H]23)C[C@H]1O (stereo in doubt) [Compound B073, (1R,3S)-5-(2-((1R,3aS,7aR,E)-1-((S)-1-((S)-3-hydroxy-3-methylpyrrolidin-1-yl)propan-2-yl)-7a-methyloctahydro-4H-inden-4-ylidene)ethylidene)-2-methylenecyclohexane-1,3-diol] | ≥ 20 | 1 to 10
C=C1/C(=C\C=C2/CCC[C@]3(C)[C@@H]([C@H](C)CCN4CCO[C@H](C)C4)CC[C@@H]23)C[C@@H](O)CC1O (stereo in doubt) [Compound D047, (1R,3R,Z)-5-(2-((1R,3aS,7aR,E)-7a-methyl-1-((R)-4-((R)-2-methylmorpholino)butan-2-yl)octahydro-4H-inden-4-ylidene)ethylidene)-4-methylenecyclohexane-1,3-diol] | ≥ 20 | –
C=C1/C(=C\C=C2/CCC[C@]3(C)[C@@H]([C@H](C)CCN4CCO[C@@H](C)C4)CC[C@@H]23)C[C@@H](O)CC1O (stereo in doubt) [Compound D048, (1R,3R,Z)-5-(2-((1R,3aS,7aR,E)-7a-methyl-1-((R)-4-((S)-2-methylmorpholino)butan-2-yl)octahydro-4H-inden-4-ylidene)ethylidene)-4-methylenecyclohexane-1,3-diol] | ≥ 20 | –
C=C1[C@H](O)CC(=C/C=C2\CCC[C@]3(C)[C@@H]([C@H](C)CN4CC(CC(F)F)C4)CC[C@@H]23)C[C@H]1O [Compound A019, (1R,3R)-5-(2-((1R,3aS,7aR,E)-1-((S)-1-(3-(2,2-difluoroethyl)azetidin-1-yl)propan-2-yl)-7a-methyloctahydro-4H-inden-4-ylidene)ethylidene)-2-methylenecyclohexane-1,3-diol] | ≥ 20 | 10 to 100
C=C1[C@H](O)CC(=C/C=C2\CCC[C@]3(C)[C@@H]([C@H](C)CN4CC[C@H](C)C4)CC[C@@H]23)C[C@H]1O [Compound B002, (1R,3R)-5-(2-((1R,3aS,7aR,E)-7a-methyl-1-((S)-1-((S)-3-methylpyrrolidin-1-yl)propan-2-yl)octahydro-4H-inden-4-ylidene)ethylidene)-2-methylenecyclohexane-1,3-diol] | ≥ 20 | 10 to 100
C[C@@H]1CCN(C[C@@H](C)[C@H]2CC[C@H]3/C(=C/C=C4C[C@@H](O)C[C@H](O)C4)CCC[C@]23C)C1 [Compound B004, (1R,3R)-5-(2-((1R,3aS,7aR,E)-7a-methyl-1-((S)-1-((R)-3-methylpyrrolidin-1-yl)propan-2-yl)octahydro-4H-inden-4-ylidene)ethylidene)cyclohexane-1,3-diol] | ≥ 20 | 1 to 10
C=C1/C(=C\C=C2/CCC[C@]3(C)[C@@H]([C@H](C)CN4CC[C@H](OC(F)F)C4)CC[C@@H]23)C[C@@H](O)C[C@@H]1O [Compound B047, (1R,3S,Z)-5-(2-((1R,3aS,7aR,E)-1-((S)-1-((S)-3-(difluoromethoxy)pyrrolidin-1-yl)propan-2-yl)-7a-methyloctahydro-4H-inden-4-ylidene)ethylidene)-4-methylenecyclohexane-1,3-diol] | ≥ 20 | 10 to 100
C=C1/C(=C\C=C2/CCC[C@]3(C)[C@@H]([C@H](C)CN4CC[C@@H](OC(F)F)C4)CC[C@@H]23)C[C@@H](O)C[C@@H]1O [Compound B048, (1R,3S,Z)-5-(2-((1R,3aS,7aR,E)-1-((S)-1-((R)-3-(difluoromethoxy)pyrrolidin-1-yl)propan-2-yl)-7a-methyloctahydro-4H-inden-4-ylidene)ethylidene)-4-methylenecyclohexane-1,3-diol] | ≥ 20 | 10 to 100
C=C1/C(=C\C=C2/CCC[C@]3(C)[C@@H]([C@H](C)CCN4CCO[C@@H](C(F)F)C4)CC[C@@H]23)C[C@@H](O)C[C@@H]1O [Compound D037, (1R,3 S,Z)-5-(2-((1R,3aS,7aR,E)-1-((R)-4-((R)-2-(difluoromethyl)morpholino)butan-2-yl)-7a-methyloctahydro-4H-inden-4-ylidene)ethylidene)-4-methylenecyclohexane-1,3-diol] | ≥ 20 | –
C=C1[C@H](O)CC(=C/C=C2\CCC[C@]3(C)[C@@H]([C@H](C)CCN4C[C@@H](C)OC[C@@H]4C)CC[C@@H]23)C[C@H]1O [Compound D038, (1R,3R)-5-(2-((1R,3aS,7aR,E)-1-((R)-4-((2R,5S)-2,5-dimethylmorpholino)butan-2-yl)-7a-methyloctahydro-4H-inden-4-ylidene)ethylidene)-2-methylenecyclohexane-1,3-diol] | ≥ 20 | –
